Measurements: US10023552B2, “Method of preparing a liquiritigenin precursor” (priority 2014, dated 2018)
Read-outs that look alike come from different tables or passages of the source.

Columns and labels:
[1] = test system: human liver cancer cells SMMC7721; settings: cited from earlier work
[2] = test system: human poorly differentiated gastric cancer line BGC-823; settings: cited from earlier work
[3] = test system: human leukemia cells HL-60; settings: cited from earlier work
[4] = test system: human lung cancer cells A549; settings: cited from earlier work
[5] = Acute toxicity test (Japan Food Analysis Center); format: in vivo; settings: tested in Japan Food Analysis Center
Procedure: The desired product iso-liquiritigenin were tested for acute toxicity in Japan Food Analysis Center and it was confirmed that there is no toxicity.

O=C1C[C@@H](c2ccc(O)cc2)Oc2cc(O)ccc21 [Liquiritigenin, liquiritigenin]
SMMC7721 Inhibition % ([1]; Conc. 1 μg/ml): 23.17% | SMMC7721 Inhibition % ([1]; Conc. 10 μg/ml): 96.08% | SMMC7721 Inhibition % ([1]; Conc. 100 μg/ml): 98.00% | BGC-823 Inhibition % ([2]; Conc. 1 μg/ml): 24.41% | BGC-823 Inhibition % ([2]; Conc. 10 μg/ml): 73.76% | BGC-823 Inhibition % ([2]; Conc. 100 μg/ml): 97.52% | HL-60 Inhibition % ([3]; Conc. 1 μg/ml): 50.95% | HL-60 Inhibition % ([3]; Conc. 10 μg/ml): 64.40% | HL-60 Inhibition % ([3]; Conc. 100 μg/ml): 99.30% | A549 Inhibition % ([4]; Conc. 1 μg/ml): 7.76% | A549 Inhibition % ([4]; Conc. 10 μg/ml): 35.66% | A549 Inhibition % ([4]; Conc. 10 μg/ml, listed as Liquiritigenin (−)): 35.06% | A549 Inhibition % ([4]; Conc. 100 μg/ml): 93.03%

COc1cccc2c1C(=O)c1c(O)c3c(c(O)c1C2=O)C[C@@](O)(C(=O)CO)C[C@@H]3O[C@H]1C[C@H](N)[C@H](O)[C@H](C)O1 [adriamycin, reference compound]
SMMC7721 Inhibition % ([1]; Conc. 1 × 10^−5 Mol/l): 97.47% | SMMC7721 Inhibition % ([1]; Conc. 1 × 10^−6 Mol/l): 58.40% | SMMC7721 Inhibition % ([1]; Conc. 1 × 10^−7 Mol/l): 10.28% | BGC-823 Inhibition % ([2]; Conc. 1 × 10^−5 Mol/l): 97.67% | BGC-823 Inhibition % ([2]; Conc. 1 × 10^−6 Mol/l): 45.80% | BGC-823 Inhibition % ([2]; Conc. 1 × 10^−7 Mol/l): 17.86% | HL-60 Inhibition % ([3]; Conc. 1 × 10^−5 Mol/l): 99.09% | A549 Inhibition % ([4]; Conc. 1 × 10^−5 Mol/l): 90.44% | A549 Inhibition % ([4]; Conc. 1 × 10^−6 Mol/l): 16.42% | A549 Inhibition % ([4]; Conc. 1 × 10^−7 Mol/l): 16.42%

O=C(/C=C/c1ccc(O)cc1)c1ccc(O)cc1O [iso-liquiritigenin]
acute toxicity [5]: no toxicity
